Test results reported in patent US6949575B2, “Method of inhibiting amyloid protein aggregation and imaging amyloid deposits using aminoindane derivatives” (Pfizer Inc., priority 2000, dated 2005).
Several values for one entry are separate records, joined by “and”; a condition that tells them apart may be missing. Identical values can stand only once.

What was measured:
Format in all cases: biochemical
Aβ (1-42) = molecular target: T1, Aβ (1-42) (Homo sapiens, UniProt P05067); assay: Batym Assay: Aβ (1-42) aggregation, Thioflavin T fluorescence; details: Aβ1-42 final 100 μM, 37° C., 1 day, read-out: BAYTM IC50
T1 construct: Required Aβ (1-42) (California Peptide); purchased California Peptide
Description: Required Aβ (1-42) (California Peptide) was dried from its HFIP stock solution. The Aβ (1-42) was dissolved in DMSO and then mixed with phosphate buffered saline (PBS) (pH 7.4). The mixed Aβ (1-42) solution was filtered with a Omnipore membrane 0.2-μm syringe filter (Millipore, Bedford, Mass.). The compound to be tested in DMSO (50× concentrate) was put into each well (0.5 μL/well) of a 96-well plate. The Aβ (1-42) solution was added into each well (24.5 μL/well). The plate was centrifuged at 1,000 g for 5 minutes and incubated at 37° C. for 1 day (Aβ1-42; final concentration 100 μM).
After incubation, Thioflavin T (ThT) (30 μM) solution in glycine-NaOH buffer (pH 8.5, 50 mM) was added into each well (250 μL/well), fluorescence was measured (ex=440/20 nm; em=485/20 nm) using a fluorescence plate reader. The inhibitory activity was calculated as the reduction of fluorescence with the following formula: Inhibition (%)={(F(Aβ)−F(Aβ+compound)}/{F(Aβ)−[…]}×100
The IC50s were calculated by a curve fitting program using the following equation. The data were obtained from two different experiments in triplicate. Inhibition (x)=100−100/{1+(x/IC50)^n}. • x=concentration of tested compound (M). • IC50=(M). • n=Hill coefficient.

Aβ (1-40) peptide = molecular target: T2, Aβ (1-40) peptide (Homo sapiens, UniProt P05067); assay: BAPA (Beta-Amyloid Peptide Aggregation, pH 6.0), filtration endpoint; details: Aβ(1-40) 33 μM, pH 6.0, 2 to 4 hours, room temperature
T2 construct: Aβ (1-40) peptide in 20% HFIP
Description: • 1) Prepare the reaction mix above by mixing the components and storing on ice. • 2) Pipet 14.5 μL of reaction mixture into each of 50 wells of a polystyrene U-bottom 96-well microtiter plate (Coming 25881-96) on ice. • 3) Add 1.7 μL of diluted compound to be tested to each well in a column of eight, including solvent control. Serial 3-fold dilutions from 1 mM (100 μM final) in assay buffer-urea=7 dilutions+zero. Each 96-well plate can therefore accommodate 11 samples+1 Congo Red control (0.039-5 μM final in 2-fold steps). • 4) Seal the plate with aluminum film and incubate for 10 minutes on ice. • 5) Raise the temperature to 37° C. and incubate for 3 to 5 hours (depends on the lot of the peptide). • 6) Remove the aluminum film and add 250 μL/well of 5 μM thioflavin T (ThT) [T-3516, Sigma-Aldrich] in 50 mM glycine-NaOH, pH 8.5. Read fluorescence on a plate reader (ex=440 nm/20 nm; em=485 nm/20 nm) within 5 minutes. BAPA (Beta-Amyloid Peptide Aggregation) This assay is used to provide a measure of inhibition by a compound against the aggregation behavior of the β-amyloid peptide. The purpose of this assay is to provide a higher volume method of assaying the amount of β-amyloid aggregation using an endpoint assay based on filtration. In this assay, hexafluoroisopropanol (HFIP) is used to break down the initial amyloid peptide to a monomer state and use a concentration of 33 μM which is high enough so that aggregation will occur at pH 6.0 in several hours. Methods: Beta-Amyloid Peptide Aggregation, pH 6.0 (BAPA) In a 96-well plate (Costar 3794), we add 25 μL 50 mM phosphate buffer, pH 6.0, 10 μL 0.5 mg/mL Aβ (1-40) peptide in 20% HFIP+0.1 μL/assay radioiodinated ^125I Aβ (1-40) [^125I Aβ(1-40)], and 1 μL of the compound to be tested starting at 50 mM with a concentration of DMSO<1%. Then, we incubate for 2 to 4 hours at room temperature. We stop the reaction with 200 μL of 50 mM phosphate buffer, pH 6.0, and filter it through a 0.2 μm 96-well filter plate (Millipore MAGU […]). We wash the filter plate with 100 μL of the same phosphate buffer. Aggregation was detected on a Microbeta counter after impregnating the filters with Meltilex (1450-441) and is corrected for background.

Soluble Aβ(1-40) = molecular target: T3, Soluble Aβ(1-40) (Homo sapiens, UniProt P05067); assay: BASST (Beta-Amyloid Self-Seeding, Thioflavin T): inhibitors of self-seeded amyloid fibril growth; details: 30 μM soluble Aβ(1-40), 37° C., 3 to 5 hours, thioflavin T fluorescence
T3 construct: Soluble Aβ(1-40)—2.2 mg/mL in deionized H2O
Description: • 1) Prepare reaction mixture above by mixing components and storing on ice. • 2) Pipet 14.5 μL of reaction mixture into each of 50 wells on a polypropylene U-bottom 96-well microtiter plate on ice (Costar 3794). • 3) Add 1.7 μL of diluted compound to be tested to each well in a column of eight, including solvent control. Serial 3-fold dilutions from 1 mM (100 μM final) in assay buffer-urea=7 dilutions+zero. Each 96-well plate can therefore accommodate 11 samples+1 Congo Red control (0.039-5 μM final in 2-fold steps). • 4) Seal the plate with aluminum film (Beckman 538619) and incubate for 10 minutes on ice. • 5) Raise the temperature to 37° C. and incubate for 3 to 5 hours (depending on the lot of the peptide). • 6) Remove the aluminum film and add 200 μL/well of ice cold assay buffer with urea, collecting the radiolabeled fibrils by vacuum filtration through 0.2-μm pore size GVWP filters in 96-well plates (Millipore MAGV […], Bedford, Mass.). Determine the radioactivity of the filters using standard methods well-known to those skilled in the art. BASST (Beta-Amyloid Self-Seeding, Thioflavin T) An assay for inhibitors of self-seeded amyloid fibril growth Methods: Materials: Stock Solutions: Assay Buffer-50 mM sodium phosphate, pH 7.5, 100 mM NaCl, 0.02% NaN3, 1 M urea (filter and store at 4° C.) Soluble Aβ(1-40)-2.2 mg/mL in deionized H2O (store in aliquots at -20° C., keep on ice when thawed) will self-seed after 1 week storage. Typically, the solution should be stored until no lag phase is seen in the assay. Final assay conditions: 30 μM soluble Aβ(1-40) in deionized water in assay buffer. Compound to be tested is dissolved in DMSO, typically 5 to 50 mM stock, such that the final concentration of DMSO is <1% v/v in the assay. Assay: Reaction mixture for 50 assays (on ice) comprised of 1 μL of soluble Aβ(1-40)+13.5 μL assay buffer per assay. The following are the amounts of the components of the reaction mixture that result in each of the 50 assay wells. 50 μL soluble Aβ(1-40) 675 μL assay buffer Assay Method • 1) Prepare the reaction mix above by mixing the components and storing on ice. • 2) Pipet 14.5 μL of reaction mixture into each of 50 wells of a polystyrene U-bottom 96-well microtiter plate (Coming 25881-96) on ice. • 3) Add 1.7 μL of diluted compound to be tested to each well in a column of eight, including solvent control. Serial 3-fold dilutions from 1 mM (100 μM final) in assay buffer-urea=7 dilutions+zero. Each 96-well plate can therefore accommodate 11 samples+1 Congo Red control (0.039-5 μM final in 2-fold steps). • 4) Seal the plate with aluminum film and incubate for 10 minutes on ice. • 5) Raise the temperature to 37° C. and incubate for 3 to 5 hours (depends on the lot of the peptide). • 6) Remove the aluminum film and add 250 μL/well of 5 μM thioflavin T (ThT) [T-3516, Sigma-Aldrich] in 50 mM glycine-NaOH, pH 8.5. Read fluorescence on a plate reader (ex=440 nm/20 nm; em=485 nm/20 nm) within 5 minutes. BAPA (Beta-Amyloid Peptide Aggregation)

Soluble Aβ(1-40) peptide = molecular target: T4, Soluble Aβ(1-40) peptide (Homo sapiens, UniProt P05067); assay: BASSR (Beta-Amyloid Self-Seeding Radioassay): inhibitors of self-seeded amyloid fibril growth; details: 30 μM soluble Aβ(1-40) + 125I-labeled Aβ(1-40), 37° C., 3 to 5 hours, filtration; replicate values
T4 construct: Soluble Aβ(1-40) peptide; purchased Bachem, Torrance, Calif
Description: BASSR (Beta-Amyloid Self-Seeding Radioassay)
An assay for inhibitors of self-seeded amyloid fibril growth
Assay Buffer—[…] sodium phosphate, pH 7.5, 100 mM NaCl, 0.02% NaN3, 1 M urea (filter and store at 4° C.)
Soluble Aβ(1-40) peptide (Bachem, Torrance, Calif.)—2.2 mg/mL in deionized H2O (stored in aliquots at −20° C., keep on ice when thawed) will self-seed after 1 week storage. Typically, the solution should be stored until no lag phase is seen in the assay.
^125I-labeled Aβ(1-40)—150 to 350K cpm/μL in 100% acetonitrile—0.1% trifluoroacetic acid (TFA)—1% β-mercaptoethanol (aliquots stored at −20° C.). ^125I-labeled Aβ(1-40) can be made in accordance with the procedure set forth by H. Levine, III in Neurobiol. Aging, 16:755 (1995), which is hereby incorporated by reference, or this reagent may be purchased from Amersham, Arlington Heights, Ill. Final assay conditions: 30 μM soluble Aβ(1-40) in deionized water in assay buffer+20 to 50K cpm ^125I-labeled Aβ(1-40) per assay. Compound to be tested is dissolved in dimethylsulfoxide (DMSO), typically 5 to 50 mM stock, such that the final concentration of DMSO is <1% v/v in the assay. Assay: Reaction mixture for 50 assays (on ice) is comprised of 0.1 to 0.2 μL of ^125I-labeled A^125I-labeled Aβ(1-40)+1 μL of soluble Aβ(1-40)+13.5 μL assay buffer per assay. The following are the amounts of the components of the reaction mixture sufficient for 50 assay wells.
• 1) Prepare reaction mixture above by mixing components and storing on ice. • 2) Pipet 14.5 μL of reaction mixture into each of 50 wells on a polypropylene U-bottom 96-well microtiter plate on ice (Costar 3794). • 3) Add 1.7 μL of diluted compound to be tested to each well in a column of eight, including solvent control. Serial 3-fold dilutions from 1 mM (100 μM final) in assay buffer-urea=7 dilutions+zero. Each 96-well plate can therefore accommodate 11 samples+1 Congo Red control (0.039-5 μM final in 2-fold steps). • 4) Seal the plate with aluminum film (Beckman 538619) and incubate for 10 minutes on ice. • 5) Raise the temperature to 37° C. and incubate for 3 to 5 hours (depending on the lot of the peptide). • 6) Remove the aluminum film and add 200 μL/well of ice cold assay buffer with urea, collecting the radiolabeled fibrils by vacuum filtration through 0.2-μm pore size GVWP filters in 96-well plates (Millipore MAGV N22, Bedford, Mass.). Determine the radioactivity of the filters using standard methods well-known to those skilled in the art. BASST (Beta-Amyloid Self-Seeding, Thioflavin T)

T2 sequence (P05067 672-711 limits assumed): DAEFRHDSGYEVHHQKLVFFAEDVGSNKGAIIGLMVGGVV
T3 sequence (P05067 672-711 limits assumed): as above
T1 sequence (P05067 672-713 limits assumed): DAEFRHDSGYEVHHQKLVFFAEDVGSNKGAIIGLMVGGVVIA
T4 sequence (P05067 672-711 limits assumed): as the sequence (P05067 672-711 limits assumed) above

SMILES	IC50 (Aβ (1-42))	IC50 (Aβ (1-40) peptide)	IC50 (Soluble Aβ(1-40))	IC50 (Soluble Aβ(1-40) peptide)
O=C(O)c1cc([N+](=O)[O-])ccc1Nc1ccc2c(c1)CC(N(Cc1ccc(F)cc1)Cc1ccc(F)cc1)C2 (centres unmarked) [Example 11, 2-{2-[bis-(4-Fluorobenzyl)amino]indan-5-ylamino}-5-nitro-benzoic acid]	7 µM and 12 µM	7 µM	1 µM	
O=C(O)c1ccccc1Nc1ccc2c(c1)CC(NCc1ccc(Cl)c(Cl)c1)C2 (centres unmarked) [Example 3, 2-[2-(3,4-Dichlorobenzylamino)-indane-5-ylamino]-benzoic acid]	> 100 µM		40 µM	> 100 µM
O=C(O)c1cc([N+](=O)[O-])ccc1Nc1ccc2c(c1)CC(NCc1ccc(Cl)c(Cl)c1)C2 (centres unmarked) [Example 4, 2-[2-(3,4-Dichlorobenzylamino)-indan-5-ylamine]-5-nitro-benzoic Acid]	16 µM	28 µM	1.1 µM	
O=C(O)c1cc([N+](=O)[O-])ccc1NC1Cc2ccc(Nc3ccc(Cl)c(Cl)c3)cc2C1 (centres unmarked) [Example 9, 2-[5-(3,4-Dichlorophenylamino)-indan-2-ylamino]-5-nitro-benzoic acid]		5 µM	0.25 µM	
